From patent US20240382629A1, “HETEROBIVALENT AND HOMOBIVALENT AGENTS TARGETING FIBROBLAST ACTIVATION PROTEIN ALPHA AND/OR PROSTATE-SPECIFIC MEMBRANE ANTIGEN” (The Johns Hopkins University, priority 2021, published 2024)

Columns and labels:
DPPIV = DPPIV (Homo sapiens (Human), UniProt P27487); experiment: DPPIV inhibition assay (recombinant enzyme, H-Gly-Pro-AMC substrate); assay type: biochemical
Description: (§1) PSMA binding affinities of the compounds were determined using a competitive inhibition assay as previously reported. […] FAP, prolyl endopeptidase (PREP), and […] (DPPIV) inhibition assays: Recombinant enzymes (FAP, PREP, DPPIV) were purchased from R&D Systems (Minneapolis, MN). […] Z-Gly-Pro-AMC was used as a substrate for FAP and PREP. H-Gly-Pro-AMC was used as a substrate for DPPIV. The recombinant enzyme (0.4 μg/mL) was incubated with varying amounts of the test articles in the presence of the designated substrate (80 μM) for 10 min at room temperature. Fluorescence intensity was measured with 380 nm excitation and 460 nm emission using the Cytation 5 Cell Imaging Multi-Mode Reader (BioTek, Winooski, VT). IC50 and Ki values were obtained using a sigmoidal dose-response function.

FAP = FAP (Homo sapiens (Human), UniProt Q12884); experiment: FAP inhibition assay (recombinant enzyme, Z-Gly-Pro-AMC substrate); assay type: biochemical; settings: Table 3
Description: as §1

Sequence of DPPIV (P27487 whole entry): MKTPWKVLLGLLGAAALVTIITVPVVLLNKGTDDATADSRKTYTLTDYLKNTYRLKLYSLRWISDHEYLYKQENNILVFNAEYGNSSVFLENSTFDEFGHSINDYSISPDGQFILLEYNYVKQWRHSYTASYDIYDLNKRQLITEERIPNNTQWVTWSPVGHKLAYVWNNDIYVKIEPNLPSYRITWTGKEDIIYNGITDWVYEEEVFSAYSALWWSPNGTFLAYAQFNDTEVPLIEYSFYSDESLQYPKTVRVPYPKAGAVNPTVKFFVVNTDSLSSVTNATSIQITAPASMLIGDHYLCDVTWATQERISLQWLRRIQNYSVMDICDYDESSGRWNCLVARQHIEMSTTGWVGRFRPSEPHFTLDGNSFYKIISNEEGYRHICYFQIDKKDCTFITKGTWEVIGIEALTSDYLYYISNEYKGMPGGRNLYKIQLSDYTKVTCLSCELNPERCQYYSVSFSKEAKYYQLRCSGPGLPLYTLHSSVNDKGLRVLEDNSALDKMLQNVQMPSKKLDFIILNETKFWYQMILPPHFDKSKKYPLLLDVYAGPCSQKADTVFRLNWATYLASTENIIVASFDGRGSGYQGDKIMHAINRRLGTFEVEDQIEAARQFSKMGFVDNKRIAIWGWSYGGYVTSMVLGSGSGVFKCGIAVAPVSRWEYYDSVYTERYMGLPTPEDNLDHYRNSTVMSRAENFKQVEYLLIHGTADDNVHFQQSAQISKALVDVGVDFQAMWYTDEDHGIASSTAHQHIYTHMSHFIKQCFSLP
Sequence of FAP (Q12884 whole entry): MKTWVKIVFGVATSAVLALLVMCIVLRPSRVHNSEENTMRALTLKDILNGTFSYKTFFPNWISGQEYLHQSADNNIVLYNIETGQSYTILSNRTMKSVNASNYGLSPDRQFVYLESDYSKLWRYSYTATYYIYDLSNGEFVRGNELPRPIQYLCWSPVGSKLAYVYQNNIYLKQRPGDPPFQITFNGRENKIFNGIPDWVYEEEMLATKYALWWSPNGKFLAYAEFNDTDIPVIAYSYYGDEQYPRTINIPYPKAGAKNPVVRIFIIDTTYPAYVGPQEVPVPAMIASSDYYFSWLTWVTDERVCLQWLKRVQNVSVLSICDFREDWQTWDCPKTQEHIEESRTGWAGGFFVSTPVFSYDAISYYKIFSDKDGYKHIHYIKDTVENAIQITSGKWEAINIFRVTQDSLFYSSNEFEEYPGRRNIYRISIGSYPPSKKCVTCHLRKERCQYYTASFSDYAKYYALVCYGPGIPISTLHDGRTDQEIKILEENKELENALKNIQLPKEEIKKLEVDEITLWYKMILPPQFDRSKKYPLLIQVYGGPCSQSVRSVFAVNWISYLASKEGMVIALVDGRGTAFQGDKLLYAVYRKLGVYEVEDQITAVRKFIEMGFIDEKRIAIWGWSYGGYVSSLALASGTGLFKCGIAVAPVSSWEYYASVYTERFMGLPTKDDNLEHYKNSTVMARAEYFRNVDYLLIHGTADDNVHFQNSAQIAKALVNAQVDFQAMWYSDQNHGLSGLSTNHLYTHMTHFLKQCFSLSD

Ki (DPPIV) [nM] | IC50 (FAP) [nM] | Ki (FAP; read-out: FAP Ki) [nM] | IC50 (DPPIV; Table 3, read-out: DPPIV IC50) [nM] | Compound
800 | – | – | – | N#C[C@@H]1CC(F)(F)CN1C(=O)CNC(=O)c1ccnc2ccc(OCCCN3CCN(C(=O)CN4CCN(CC(=O)O)CCN(CC(=O)O)CCN(CC(=O)O)CC4)CC3)cc12 [FAPI-04, reference compound]
– | 0.119 | 0.0239 | > 20000 | N#C[C@@H]1CCCN1C(=O)CNC(=O)c1ccnc2ccc(F)cc12 [JHU1220450]
